These results are taken from patent US7763604B2, “Methods for administration of a farnesyl dibenzodiazepinone” (Thallion Pharma Ceuticals, Inc., priority 2005, dated 2010).

A short description of data set [1]: toxicity of 14-day continuous intravenous infusion in monkeys. It is filed as in vivo. The note with it: 14-day CIV. As to the method: Cynomolgus monkeys received continuous IV infusion over 14 days of Formula I at 5 mg/kg/day, 15 mg/kg/day, or 30 mg/kg/day. The drug was infused intravenously (24 hours/day) into the femoral vein at a dose rate of 2 ml/kg/hour for 14 consecutive days. Blood samples were removed from each monkey on Days 1, 2, 6, 10, and 15 of the treatment period. Monkeys were bled by venipuncture and samples were collected into tubes containing K2EDTA. On Day 1, samples were collected at 2, 6, and 12 hours after initiation of treatment. Additional samples were collected at 30 hours after the start of infusion (Day 2). On Days 6 and 10, samples were collected at approximately 6 hours after the bag changes. At the end of the 14 days of infusion, on Day 15, samples were collected at 1 hour prior to cessation of dose administration, and at 5 min, 30 min, 1 h, 2 h, 4 h, 8 h, and 24 h following cessation of dose administration.

Data set [2] in a line: pharmacokinetics of 14-day CIV infusion in rats. The data set is classed as in vivo, Sprague-Dawley rats. The note with it: calculated at the end of treatment. As to the method:
Sprague-Dawley rats received an intravenous continuous infusion over 14 days of Formula I at 25 mg/kg/day, 50 mg/kg/day, or 75 mg/kg/day at a rate of 2 mL/kg/h for 14 consecutive days (same formulation as in Example 7). Blood was collected from the jugular vein in tubes containing K2 EDTA from 3 rats/sex/group at the following time points: 2, 6, and 12 hours after the start of dosing on Day 1, on Day 2 at 6 hours (approximately 30 hours after the start of dosing), on Days 6 and 10 at 6 hours, and on Day 15, 1 hour prior the end of dosing, and then at 5 min, 15 min, 30 min, 1 h, and 2 h after the end of dosing.

Data set [3] can be described thus: pharmacokinetics and tissue levels after 30 mg/kg bolus IV, IP, SC and PO in mice. The data set is classed as in vivo, female Crl: CD1 mice. The method, then: The compound of formula I was dissolved in ethanol (5%), Polysorbate 80 (15%), PEG 400 (5%) and dextrose (5%) at a final concentration of 6 mg/ml (IV, IP and SC administration). For oral administration, the compound of Formula I was solubilized in Chremophor® EL/Ethanol (50%:50%) at a final concentration of 6 mg/ml. Prior to dosing, animals (female Crl: CD1 mice; 6 weeks of age, 22-24 g) were weighed, randomly selected and assigned to the different treatment groups. The compound of Formula I was administered by the bolus intravenous (IV), bolus subcutaneous (SC), bolus intraperitoneal (IP), or oral (PO) route to the assigned animals. The dosing volume of Formula I was 5 mL per kg body weight. Animals were anesthetized prior to bleeding with 5% isoflurane. Blood was collected into microtainer tubes containing the anticoagulant K2EDTA by cardiac puncture from each of 4 animals per bleeding timepoint (2 min, 5 min, 15 min, 30 min, 1 h, 2 h, 4 h and 8 h). Following collection, the samples were centrifuged and the plasma obtained from each sample was recovered and stored frozen (at approximately −80° C.) pending analysis. At the 5 min and 30 min time points, the following organs were harvested from each animal: brain, lungs, skeletal muscle, fat tissue, kidneys, spleen, thymus and liver. Tissues were frozen (at approximately −80° C.) pending analysis. Samples were analysed by LC/MS/MS.
Plasma values of the compound of Formula I falling below the limit of quantitation (LOQ) were set to zero. […] The following pharmacokinetic parameters were calculated: area under the plasma concentration versus time curve from time zero to the last measurable concentration time point (AUCO-t), area under the plasma concentration versus time curve extrapolated to infinity (AUCinf), maximum observed plasma concentration (Cmax), time of maximum plasma concentration (tmax), apparent first-order terminal elimination rate constant (kel), apparent first-order terminal elimination half-life will be calculated as 0.693/kel (t1/2). The systemic clearance (CL) of the compound of Formula I after intravenous administration was calculated using Dose/AUCinf. Pharmacokinetic parameters were calculated using Kinetica™ 4.1.1 (InnaPhase Corporation, Philadelphia, Pa.).

A short description of data set [4]: maximum tolerated dose and tolerability of bolus administration in mice. It is filed as in vivo.

Turning to `CC(C)=CCC/C(C)=C/CC/C(C)=C/CN1C(=O)c2cccc(O)c2Nc2c(O)cc(O)cc21` [Formula I, 10-farnesyl-4,6,8-trihydroxy-dibenzodiazepin-11-one], in data set [1], the “degenerative changes in organs, including the infusion site” value is “No degenerative changes”. Besides, the “effect on body weight, ocular condition, electrocardiographic activity and other parameters” value in data set [1] was “no effect”. In data set [1], the side effects entry was “inappetance and a moderate degree of regenerative anemia, were reversible”. Moreover, the compound associated toxicity entry in data set [1] (5 to 30 mg/kg/day) is “no severe compound associated toxicity”. Also, the T1/2z in data set [2] (CIV 25 mg/kg/day) is on record as 1.6 h; in data set [2] (CIV 50 mg/kg/day) it was 1.2 h; in data set [2] (CIV 75 mg/kg/day), 1.2 h. Besides, the peak plasma concentration turned out to be 7.8 µM in data set [3] (IP bolus 30 mg/kg) and 2.3 µM in data set [3] (SC bolus 30 mg/kg). Further, the “time to peak plasma concentration” value worked out at 15 min in data set [3] (IP bolus 30 mg/kg) and 60 min in data set [3] (SC bolus 30 mg/kg). Also, the tissue distribution result in data set [3] (IV and IP bolus 30 mg/kg, 30 min time point) is listed as “well distributed”. Further, the “drug levels after oral administration” value in data set [3] (PO 30 mg/kg) was “moderate but sustained drug levels”. The “tissue levels compared with IP” value in data set [3] (SC bolus 30 mg/kg, 30 min time point) is “significantly lower”. In addition, the “t1/2,α” value in data set [3] (bolus IV 30 mg/kg, plasma, mice, 30 mg/kg) is given as 4.7 min. In addition, the “plasma concentration, initial” value in data set [3] (bolus IV 30 mg/kg, start of decline) is around 425 µM. Also, in data set [3] (intraperitoneal and subcutaneous bolus 30 mg/kg, mice), the “time plasma concentration is maintained at therapeutically relevant levels” value is “over 8 hours”. In addition, the tolerability finding entry is “some intestinal occlusion” in data set [4] (IP bolus dosing); “swelling and thickening of the skin” in data set [4] (SC bolus dosing).
